Columns and labels:
Format in all cases: cell-based
human TLR7 = target: T1, human TLR7 (Homo sapiens, UniProt Q9NYK1); assay: TLR7 inhibition reporter assay (HEK-Blue cells, SEAP reporter, gardiquimod stimulation); conditions: HEK-Blue cells overexpressing human TLR7, SEAP reporter, gardiquimod 7.5 μM
T1 construct: host or cells: HEK-Blue cells
T1 sequence (Q9NYK1 27-1049): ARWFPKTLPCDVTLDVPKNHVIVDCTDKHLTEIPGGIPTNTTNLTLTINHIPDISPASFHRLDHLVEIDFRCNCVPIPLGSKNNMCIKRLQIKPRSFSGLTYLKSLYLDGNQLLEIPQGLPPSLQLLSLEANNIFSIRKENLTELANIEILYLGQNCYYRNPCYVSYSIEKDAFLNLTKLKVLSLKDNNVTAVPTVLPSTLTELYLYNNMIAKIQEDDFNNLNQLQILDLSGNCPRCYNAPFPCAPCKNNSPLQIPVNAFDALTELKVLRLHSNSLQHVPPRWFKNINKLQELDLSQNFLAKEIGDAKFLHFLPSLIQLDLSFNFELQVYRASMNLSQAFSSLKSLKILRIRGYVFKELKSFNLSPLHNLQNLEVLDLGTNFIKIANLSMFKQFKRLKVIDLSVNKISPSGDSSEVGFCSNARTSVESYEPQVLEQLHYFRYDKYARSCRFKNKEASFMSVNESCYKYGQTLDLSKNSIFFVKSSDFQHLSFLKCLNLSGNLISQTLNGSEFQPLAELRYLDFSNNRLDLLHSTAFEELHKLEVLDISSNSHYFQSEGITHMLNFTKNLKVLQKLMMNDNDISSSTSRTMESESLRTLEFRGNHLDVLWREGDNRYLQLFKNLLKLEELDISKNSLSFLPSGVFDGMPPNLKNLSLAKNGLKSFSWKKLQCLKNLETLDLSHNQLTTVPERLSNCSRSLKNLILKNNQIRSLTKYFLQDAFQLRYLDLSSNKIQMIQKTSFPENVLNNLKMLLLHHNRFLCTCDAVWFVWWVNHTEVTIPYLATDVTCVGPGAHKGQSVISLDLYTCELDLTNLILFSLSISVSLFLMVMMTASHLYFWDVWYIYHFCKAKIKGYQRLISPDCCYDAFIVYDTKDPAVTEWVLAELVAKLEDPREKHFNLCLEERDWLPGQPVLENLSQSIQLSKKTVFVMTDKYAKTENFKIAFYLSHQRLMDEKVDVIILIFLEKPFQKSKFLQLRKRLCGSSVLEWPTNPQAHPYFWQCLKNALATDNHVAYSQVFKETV
Procedure, shortened: (§1)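 HEK-Blue cells with NF-κB/AP-1-driven SEAP reporter, pre-treated 30 min at room temperature with compound (0.05 nM-50 μM). Stimulants: gardiquimod 7.5 μM (TLR7), R848 15.9 μM (TLR8) or ODN2006 5 nM (TLR9). SEAP measured after 22 h at 37° C.; percent inhibition versus agonist-plus-DMSO and known-inhibitor wells.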

human TLR9 = target: T2, human TLR9 (Homo sapiens, UniProt Q9NR96); assay: TLR9 inhibition reporter assay (HEK-Blue cells, SEAP reporter, ODN2006 stimulation); conditions: HEK-Blue cells overexpressing human TLR9, SEAP reporter, ODN2006 5 nM
T2 construct: host or cells: HEK-Blue cells
T2 sequence (Q9NR96 26-1032): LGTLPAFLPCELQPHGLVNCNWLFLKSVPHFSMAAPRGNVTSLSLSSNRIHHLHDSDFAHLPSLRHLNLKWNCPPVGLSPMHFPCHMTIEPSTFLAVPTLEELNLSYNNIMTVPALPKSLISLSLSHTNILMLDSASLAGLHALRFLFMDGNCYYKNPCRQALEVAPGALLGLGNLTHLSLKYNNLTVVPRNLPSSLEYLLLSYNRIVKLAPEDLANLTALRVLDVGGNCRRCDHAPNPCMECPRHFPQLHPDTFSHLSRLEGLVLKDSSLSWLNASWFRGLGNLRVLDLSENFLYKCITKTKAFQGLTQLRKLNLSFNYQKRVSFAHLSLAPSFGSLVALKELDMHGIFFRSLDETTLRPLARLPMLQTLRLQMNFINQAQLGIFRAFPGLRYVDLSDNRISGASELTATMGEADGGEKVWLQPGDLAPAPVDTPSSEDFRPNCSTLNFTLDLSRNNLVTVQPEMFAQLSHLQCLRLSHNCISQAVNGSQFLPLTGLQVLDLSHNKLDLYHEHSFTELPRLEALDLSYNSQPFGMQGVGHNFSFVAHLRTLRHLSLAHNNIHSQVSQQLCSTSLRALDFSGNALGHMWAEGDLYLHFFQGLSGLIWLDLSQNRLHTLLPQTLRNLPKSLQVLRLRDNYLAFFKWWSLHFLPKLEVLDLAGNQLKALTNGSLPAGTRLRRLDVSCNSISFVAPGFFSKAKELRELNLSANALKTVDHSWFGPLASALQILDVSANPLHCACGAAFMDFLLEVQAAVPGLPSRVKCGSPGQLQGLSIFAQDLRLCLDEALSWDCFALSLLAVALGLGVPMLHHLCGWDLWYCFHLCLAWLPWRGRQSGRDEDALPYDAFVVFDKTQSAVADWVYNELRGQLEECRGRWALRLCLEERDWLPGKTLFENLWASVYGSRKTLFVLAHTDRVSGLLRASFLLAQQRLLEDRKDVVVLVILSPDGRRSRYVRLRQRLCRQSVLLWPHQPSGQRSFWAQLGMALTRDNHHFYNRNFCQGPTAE
Procedure, shortened: as §1

human TLR8 = target: T3, human TLR8 (Homo sapiens, UniProt Q9NR97); assay: TLR8 inhibition reporter assay (HEK-Blue cells, SEAP reporter, R848 stimulation); conditions: HEK-Blue cells overexpressing human TLR8, SEAP reporter, R848 15.9 μM
T3 construct: host or cells: HEK-Blue cells
T3 sequence (Q9NR97 27-1041): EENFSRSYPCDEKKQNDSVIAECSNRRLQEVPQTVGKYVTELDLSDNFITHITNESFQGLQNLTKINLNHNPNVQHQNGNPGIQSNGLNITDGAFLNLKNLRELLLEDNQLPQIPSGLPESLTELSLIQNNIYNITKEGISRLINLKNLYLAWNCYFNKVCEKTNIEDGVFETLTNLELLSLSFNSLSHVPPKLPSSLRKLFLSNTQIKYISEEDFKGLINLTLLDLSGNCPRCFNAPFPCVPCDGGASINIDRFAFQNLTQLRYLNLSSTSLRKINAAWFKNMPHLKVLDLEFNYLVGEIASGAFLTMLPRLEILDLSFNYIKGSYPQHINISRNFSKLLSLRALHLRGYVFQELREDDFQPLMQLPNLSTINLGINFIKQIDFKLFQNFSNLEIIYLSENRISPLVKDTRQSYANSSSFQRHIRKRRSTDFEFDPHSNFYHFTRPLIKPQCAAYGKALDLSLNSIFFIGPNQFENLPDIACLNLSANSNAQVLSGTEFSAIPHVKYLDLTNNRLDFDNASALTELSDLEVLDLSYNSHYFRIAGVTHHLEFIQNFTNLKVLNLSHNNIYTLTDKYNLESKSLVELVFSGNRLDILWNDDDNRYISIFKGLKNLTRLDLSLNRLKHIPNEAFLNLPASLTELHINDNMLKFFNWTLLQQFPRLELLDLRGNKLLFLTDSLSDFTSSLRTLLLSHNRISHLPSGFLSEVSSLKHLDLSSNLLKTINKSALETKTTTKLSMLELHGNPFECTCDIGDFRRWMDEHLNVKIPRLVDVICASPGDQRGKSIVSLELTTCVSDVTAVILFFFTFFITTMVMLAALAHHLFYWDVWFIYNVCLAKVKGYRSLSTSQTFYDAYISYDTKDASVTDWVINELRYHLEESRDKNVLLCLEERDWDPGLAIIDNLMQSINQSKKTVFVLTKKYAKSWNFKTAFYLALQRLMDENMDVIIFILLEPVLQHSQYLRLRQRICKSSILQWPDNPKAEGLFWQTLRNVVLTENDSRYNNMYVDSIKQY
Procedure, shortened: as §1

Compound | IC50 (human TLR7) [nM] | IC50 (human TLR9) [nM] | IC50 (human TLR8) [nM]
COc1cc(-c2[nH]c3ccc(C4CCC(N(C)C(C)C)C4)cc3c2C(C)C)cn2ncnc12 (single isomer, unassigned) [Example 278, N-isopropyl-3-(3-isopropyl-2-(8-methoxy-[1,2,4]triazolo[1,5-a]pyridin-6-yl)-1H-indol-5-yl)-N-methylcyclopentan-1-amine] | 2 | 1410 | 1.5
Cc1cc(-c2[nH]c3ccc(C4CN(CC(=O)N(C)C)CCO4)cc3c2C(C)C)cc(C)n1 (stereo not drawn) [Example 326] | 75 | 19400 | 28
COc1cc(-c2[nH]c3ccc(C4CCC(NC5COC5)CC4)cc3c2C(C)C)cn2ncnc12 (stereo not drawn) [Example 90] | 0.48 | 1790 | 1.7
Cc1c(-c2[nH]c3ccc(C4CNCCO4)cc3c2C(C)C)cn2ncnc2c1C (stereo not drawn) [Example 287] | 0.7 | 2550 | 0.62
Cc1c(-c2[nH]c3ccc(C4CCC(N)CC4)cc3c2C(C)C)cn2cnnc2c1C (stereo not drawn) [Example 516] | 3 | 707 | 13
Cc1cc(-c2[nH]c3ccc(C4CCC(N5CCC(F)(F)CC5)CC4)cc3c2C(C)C)cn(C)c1=O (stereo not drawn) [Example 465] | 3 | > 50000 | 3.3
CNCC(=O)NC1CCC(c2ccc3[nH]c(-c4cn5ncnc5c(C)c4C)c(C(C)C)c3c2)CC1 (stereo not drawn) [Example 128, N-(4-(2-(7,8-dimethyl-[1,2,4]triazolo[1,5-a]pyridin-6-yl)-3-isopropyl-1H-indol-5-yl)cyclohexyl)-2-(methylamino)acetamide] | 0.37 | 2250 | 1.4
Cc1cc(-c2[nH]c3ccc(C4CN(CC5(C)COC5)CCO4)cc3c2C(C)C)cn2ncnc12 (stereo not drawn) [Example 292] | 22 | 34200 | 2.8
COc1cc(-c2[nH]c3ccc(C4CCCN(C5COC5)C4)cc3c2C(C)C)cn2ncnc12 (stereo not drawn) [Example 243] | 10 | 12900 | 16
CNCCN1CCCC(c2ccc3[nH]c(-c4ccc(OC)c(OC)c4)c(C(C)C)c3c2)C1 (stereo not drawn) [Example 254, 2-(3-(2-(3,4-dimethoxyphenyl)-3-isopropyl-1H-indol-5-yl)piperidin-1-yl)-N-methylethanamine] | 107 | 742 | 16
COc1ccc(CNC2CCC(c3ccc4[nH]c(-c5cc(C)nc(C)c5)c(C(C)C)c4c3)CC2)cc1 (single isomer, unassigned) [Example 50] | 68 | 622 | 149
Cc1cc(-c2[nH]c3ccc(CC4CCCN4)cc3c2C(C)C)cn2ncnc12 (stereo not drawn) [Example 398, 2-{8-methyl-[1,2,4]triazolo[1,5-a]pyridin-6-yl}-3-(propan-2-yl)-5-[(pyrrolidin-2-yl)methyl]-1H-indole] | 1 | 1580 | 3.5
COc1cc(-c2[nH]c3ccc(C4CN(C5COC5)C(C)(C)CO4)cc3c2C(C)C)cn2ncnc12 (stereo not drawn) [Example 378] | 50 | > 50000 | 176
COc1cc(-c2[nH]c3ccc(C4CCC(NCC(F)(F)F)CC4)cc3c2C(C)C)cn2ncnc12 (single isomer, unassigned) [Example 108] | 7 | 19800 | 38
Cc1cc(-c2[nH]c3ccc(C4CN(CCS(C)(=O)=O)CCO4)cc3c2C(C)C)cn2ncnc12 (stereo not drawn) [Example 343, 2-(3-isopropyl-2-(8-methyl-[1,2,4]triazolo[1,5-a]pyridin-6-yl)-1H-indol-5-yl)-4-(2-(methylsulfonyl)ethyl)morpholine] | 10 | > 50000 | 34
COc1cc(-c2[nH]c3ccc(C4CCC(N5CC(O)C5)CC4)cc3c2C(C)C)cn2ncnc12 (single isomer, unassigned) [Example 22] | 0.85 | 1200 | 3.9
Cc1cc(-c2[nH]c3ccc(C4CCC(N(C)C5CC5)CC4)cc3c2C(C)C)cn2ncnc12 (single isomer, unassigned) [Example 8] | 6 | 3690 | 16
Cc1c(-c2[nH]c3ccc(C4CN(Cc5ncn(C)n5)C4)cc3c2C(C)C)cn2cnnc2c1C [Example 537] | 51 | 27800 | 40
COc1cc(-c2[nH]c3ccc(C4CCC(NC5CC5)CC4)cc3c2C(C)C)cn2ncnc12 (stereo not drawn) [Example 11] | 2 | 2070 | 3.7
CCCN1CC(c2ccc3[nH]c(-c4cn(C)c(=O)c(Cl)c4C)c(C(C)C)c3c2)C1 [Example 500] | 16 | 5370 | 13
Cc1cc(-c2[nH]c3ccc(C4CN(CC(N)=O)CCO4)cc3c2C(C)C)cn2ncnc12 (stereo not drawn) [Example 318] | 6 | > 50000 | 48
Cc1cc(-c2[nH]c3ccc(C4CCC(NC(=O)CN(C)C)CC4)cc3c2C(C)C)cn2ncnc12 (stereo not drawn) [Example 121] | 0.41 | 7150 | 2.6

Source: patent US11878975B2, “Substituted indole compounds useful as TLR inhibitors” (BRISTOL-MYERS SQUIBB COMPANY, priority 2017, dated 2024)
